The values below come from US20090215752A1, “Compounds, preparation and therapeutic use thereof” (priority 2005, published 2009).

Structures are written as SMILES.

The experiment deals with T1, PDE3 (Bos taurus, UniProt A0A3Q1M1E8).
T1 sequence (A0A3Q1M1E8 1-1126): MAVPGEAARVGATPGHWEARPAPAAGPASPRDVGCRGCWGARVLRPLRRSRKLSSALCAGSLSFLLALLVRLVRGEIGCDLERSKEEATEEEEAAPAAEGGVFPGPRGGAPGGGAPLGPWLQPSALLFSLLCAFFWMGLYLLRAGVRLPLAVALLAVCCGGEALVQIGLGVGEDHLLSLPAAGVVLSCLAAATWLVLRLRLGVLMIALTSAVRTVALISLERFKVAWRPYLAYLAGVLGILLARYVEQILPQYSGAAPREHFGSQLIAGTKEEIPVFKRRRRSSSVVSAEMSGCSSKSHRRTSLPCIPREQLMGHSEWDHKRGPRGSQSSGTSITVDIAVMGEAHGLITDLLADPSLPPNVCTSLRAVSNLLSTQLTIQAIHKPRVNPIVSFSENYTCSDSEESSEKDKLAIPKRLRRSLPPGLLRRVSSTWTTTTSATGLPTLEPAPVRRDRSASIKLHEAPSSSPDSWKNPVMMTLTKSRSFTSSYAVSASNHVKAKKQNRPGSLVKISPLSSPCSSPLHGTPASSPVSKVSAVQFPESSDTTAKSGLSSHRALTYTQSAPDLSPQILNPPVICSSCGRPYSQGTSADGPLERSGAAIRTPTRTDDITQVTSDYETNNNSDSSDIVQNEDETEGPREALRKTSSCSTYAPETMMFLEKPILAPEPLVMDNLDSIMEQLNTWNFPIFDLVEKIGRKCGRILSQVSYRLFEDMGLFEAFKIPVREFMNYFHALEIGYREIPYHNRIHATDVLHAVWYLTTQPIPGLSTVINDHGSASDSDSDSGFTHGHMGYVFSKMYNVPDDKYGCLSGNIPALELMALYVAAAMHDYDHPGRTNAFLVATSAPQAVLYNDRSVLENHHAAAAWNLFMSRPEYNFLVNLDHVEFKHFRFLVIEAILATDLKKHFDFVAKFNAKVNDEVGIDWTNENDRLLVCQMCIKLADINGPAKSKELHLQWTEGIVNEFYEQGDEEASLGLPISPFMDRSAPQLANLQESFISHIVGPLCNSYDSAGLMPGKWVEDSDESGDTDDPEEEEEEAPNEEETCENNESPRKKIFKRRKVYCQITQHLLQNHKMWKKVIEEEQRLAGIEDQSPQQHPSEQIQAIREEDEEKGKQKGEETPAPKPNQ
In words: Selectivity: inhibition of PDE3 (radioenzymatic assay). In kind it is biochemical, bovine. The settings on record: Table 2; 10 μM compound; read-out: PDE3 percentage inhibition at 10 μM. The procedure:
2.1.1. Isolation of Phosphodiesterases from Smooth Muscle A 3 g segment of bovine aortic media cut into pieces with scissors was homogenized with an ultra-turrax then a potter glass/glass homogenizer in 7 volumes by weight of buffer A containing a protease inhibitor cocktail (20 mM Tris-HCl, 0.25 M saccharose, 2 mM magnesium acetate, 1 mM dithiothreitol, 5 mM EGTA, 2000 U/ml aprotinin, 10 mg/l leupeptin and 10 mg/l soya trypsic inhibitor). The homogenizate was centrifuged at 105,000 g for 1 hour. The supernatant was loaded on a DEAE-Sephacel column (15×1.6 cm) pre-equilibrated with buffer B (buffer A without the saccharose, EGTA and protease inhibitors). The column was washed until there was no detectable absorption at 280 nm, then eluted with a linear gradient of NaCl (0-0.5 M) in buffer B. 3-ml fractions were collected and enzyme activity was determined under the conditions described hereinbelow to localize the different enzymes PDE1, PDE3, PDE4 and PDE5 which were aliquoted and frozen at −80° C. (Lugnier et al., Biochem. Phamacol., 1986, 35: 1746-1751). […]
Cyclic nucleotide phosphodiesterase activity was determined by a radioenzymatic method using tritium-labelled cyclic GMP or AMP (1 μM) as substrate (Lugnier et al., 1986). ^3H-labelled adenosine or guanosine monophosphate formed by hydrolysis of the radiolabelled cyclic nucleotide was then converted to ^3H-labelled adenosine or guanosine in a second reaction with one nucleotidase in excess. […] Nucleoside radioactivity was determined by liquid scintillation counting. […]
The activity of the compounds was evaluated on other phosphodiesterase isoforms, particularly basal state or calmodulin-activated PDE1 from vascular smooth muscle, PDE3, PDE4 and PDE5 from vascular smooth muscle. The results obtained are presented in Tables 1 and 2 hereinbelow and are expressed as the percentage inhibition of enzymatic activity produced by […] of the test compound.

As a reminder, the inhibition is the relative decrease from the control value, in per cent. Turning to `COc1cc2c(c(OC)c1-c1ccccc1)C(c1cccc(C(N)=O)c1)=NCC(=O)N2C` [Compound 17, 3-(6,8-Dimethoxy-1-methyl-2-oxo-7-phenyl-2,3-dihydro-1H-benzo[e][1,4]diazepin-5-yl)-benzamide], the inhibition at 10 µM is 20%.
